The numbers were not newly measured in patent US12075777B2, “Antimicrobial formulation” (Anitox Corporation, priority 2011, dated 2024), which cites them from elsewhere.

Molecules are shown by their SMILES.

The test system of data set [1] is Staphylococcus aureus, E. coli and Salmonella typhimurium.
The conditions of data set [2]: 0, 0.1, 0.2, 0.3 and 0.4% in water.
In data set [3] the test system is E. coli.
Data set [4] has as its system yeast. The arrangement: dose or concentration left out as unconfirmed. The following applies: 10^5 CFU/bottle; equivalence: trans-2-hexenal with thermal treatment (56° C.) vs citral.
Data set [5] concerns peaches and nectarines. To be noted: at 40 μL/L.
The subject of data set [6] is soybean seed. The following applies: 1.8 of trans-2-hexenal/mL of air.
Data set [7] deals with A. flavus, P. notatum, A. alternate, F. oxysporum, Cladosporium species, B. subtilis and A. tumerfaciens.
The test system of data set [8] is pears and apples. To be noted: 12.5 μL/L; twenty four hours to seven days exposure.

With `CC/C=C/CC=O` [(3E)-hexenal], the “effective level in controlling bacteria” value in data set [1] is 3 to 30 µg/mL.
Regarding `CC(=O)O` [acetic acid], in [2], the “effect on performance or intestinal microbial counts” value is “did not affect performance or intestinal microbial counts”.
As for `CC(C)=CCCC(C)=CC=O` [citral], in data set [3], the “concentration in growth media that reduced the concentration of E. coli” value was “more than 0.01%” and the “concentration with bactericidal effect” value is on record as 0.08%. For the same compound, in data set [4], the “concentration controlling yeast in beverages” value was 100-120 ppm.
Take `CCC/C=C/C=O` [trans-2-hexenal]: in [5], the phytotoxicity entry was “phytotoxic”. For the same compound, in data set [6], the “inhibition of soybean seed germination” value is on record as about 100%. The “concentration that completely inhibited growth” value in data set [7] is on record as 8 ng/L air. Also, the “effect on fruit appearance, color, firmness, soluble solids content or titrateable acidity” value in data set [8] is “did not affect”. Where the note is “4000 ppm in diet, 13 wk”, the “body weight and intake” value is “reduction in body weight and intake, but it was not significant”. Besides, for the setting “dietary levels of 0, 260, 640, 1600 or 4000 ppm fed for 13 wk”, the “changes in hematological parameters or organ weights” value is listed as “did not induce any changes”.
